Measurements taken from publication PMC6736568, “Discovery of Novel Anti-cryptosporidial Activities From Natural Products by in vitro High-Throughput Phenotypic Screening” (Frontiers in Microbiology, 2019).
Counter-ions that a name gives are not always drawn. Like-named read-outs stand apart in the source and are kept apart here.

What was measured:
Cryptosporidium parvum = assay: qRT-PCR assay of the growth of C. parvum in vitro in HCT-8 host cells (primary and secondary screening, EC50); type: cell-based; conditions: Cryptosporidium parvum, HCT-8; for inhibition at 10 µM: primary screening at 10 uM, read-out: Inhibition (%); for inhibition at 3.3 µM: secondary screening at 3.3 uM, read-out: % Inhibition (3.3 uM)
in vitro = conditions: for cytotoxicity at 41 h, 10 µM: human
[1] = primary screening at 10 uM, treated vs control

Row | Structure (SMILES) | Hs18S ΔCT (HCT-8 host cells (Hs18S); human, 41 h, 10 μM) | inhibition at 10 µM (Cryptosporidium parvum) | cytotoxicity at 41 h, 10 µM (in vitro) | inhibition at 3.3 µM (Cryptosporidium parvum) | Hs18S ΔCT (HCT-8 host cells (Hs18S); [1]) | cytotoxicity at 10 µM (in vitro) | Hs18S ΔCT (HCT-8 host cells (Hs18S))
1 | Oc1cc(O)c2c(c1)O[C@H](c1cc(O)c(O)c(O)c1)[C@H](O)C2 [EPIGALLOCATECHIN] | 0.15 | 7.01% | 9.9% | – | – | – | –
2 | C=CC[C@@H]1/C=C(\C)C[C@H](C)C[C@H](OC)[C@H]2O[C@@](O)(C(=O)C(=O)N3CCCC[C@H]3C(=O)O[C@H](/C(C)=C/[C@@H]3CC[C@@H](O)[C@H](OC)C3)[C@H](C)[C@@H](O)CC1=O)[C@H](C)C[C@@H]2OC [TACROLIMUS] | 0.16 | 75.6% | 10.4% | -14% | – | – | –
3 | CC1(C)CC23C(=O)CCC(O)C2(C)CCC13 (stereo not shown) [3-NOR-3-OXOPANASINSAN-6-OL] | 0.24 | 23.9% | 15.3% | – | – | – | –
4 | COc1ccc(-c2cc(=O)c3c(O)cc(O[C@@H]4O[C@H](CO[C@@H]5O[C@@H](C)[C@H](O)[C@@H](O)[C@H]5O)[C@@H](O)[C@H](O)[C@H]4O)cc3o2)cc1O [DIOSMIN] | -0.65 | 13.8% | -57.1% | – | – | – | –
5 | COc1cc(/C=C/C(=O)CC(=O)/C=C/c2ccc(O)c(OC)c2)ccc1O [CURCUMIN] | – | 24.3% | 2.4% | – | 0.03 | – | –
6 | COc1cc(C)c(C(=O)O)c(O)c1 [EVERNINIC ACID] | -0.34 | 52.1% | -26.6% | – | – | – | –
7 | CC(=O)Oc1cc(OC(C)=O)c2c(c1)O[C@H](c1ccc(OC(C)=O)c(OC(C)=O)c1)[C@H](OC(C)=O)C2 [EPICATECHIN PENTAACETATE] | – | -52.5% | – | – | -0.02 | -1.3% | –
8 | N[C@@H](CCC(=O)N[C@@H](CS)C(=O)NCC(=O)O)C(=O)O [GLUTATHIONE] | -0.40 | 68.1% | -32% | -20% | – | – | –
9 | CCCCCC(=O)Cc1cc(O)cc(O)c1C(=O)Oc1cc(CC(=O)CCCCC)c(C(=O)O)c(OC)c1 [ARTHONIOIC ACID] | 0.02 | -25.4% | 1.1% | – | – | – | –
10 | COc1ccc2c(C)cc(=O)oc2c1 [HYMECROMONE METHYL ETHER] | 0.26 | -1.44% | 16.6% | – | – | – | –
11 | Oc1cc2c(cc1O)C1c3ccc(O)c(O)c3OCC1(O)C2 (stereo not shown) [HAEMATOXYLIN] | 0.00 | -27.2% | 0.1% | – | – | – | –
12 | NCCCNCCCCNCCCN [SPERMINE] | -0.43 | -7.42% | -35.1% | – | – | – | –
13 | NC(Cn1ccc(=O)c(O)c1)C(=O)O (stereo not shown) [MIMOSINE] | -0.01 | -22% | -0.4% | – | – | – | –
14 | COc1c2ccoc2cc2oc(=O)ccc12 [BERGAPTEN] | – | -22.3% | – | – | 0.06 | 4.3% | –
15 | COC1(C)CCC2OC2(C)CCC2C1CC2(C)C (stereo not shown) [2-METHOXY-5 (6)EPOXY-TETRAHYDROCARYOPHYLLENE] | -0.15 | -24.7% | -11.1% | – | – | – | –
16 | COc1cc(OC)c2c(c1)O[C@H](c1ccc(OC)c(OC)c1)[C@@H](O)C2 | – | 17.5% | – | – | -0.47 | -38.4% | –
17 | C=C(C)[C@@H]1CC=C(CO)CC1 [PERILLYL ALCOHOL] | -0.35 | 29.5% | -27.4% | – | – | – | –
18 | C[C@H](CCC(=O)O)[C@H]1CC[C@H]2[C@@H]3CC[C@@H]4C[C@H](O)CC[C@]4(C)[C@H]3C[C@H](O)[C@]12C [DEOXYCHOLIC ACID] | 0.55 | -39.8% | 31.7% | – | – | – | –
19 | COC(=O)[C@H]1[C@H]2C[C@@H]3c4[nH]c5cc(OC)ccc5c4CCN3C[C@H]2C[C@@H](OC(=O)c2cc(OC)c(OC)c(OC)c2)[C@@H]1OC [RESERPINE] | 0.50 | 87% | 29.4% | 24% | – | – | –
20 | C[C@H](CCC(=O)O)[C@H]1CC[C@H]2[C@@H]3C(=O)C[C@@H]4CC(=O)CC[C@]4(C)[C@H]3CC(=O)[C@]12C [DEHYDROCHOLIC ACID] | -0.06 | -24.5% | -4.2% | – | – | – | –
21 | CN(C)[C@@H]1C(O)=C(C(N)=O)C(=O)[C@@]2(O)C(O)=C3C(=O)c4c(O)ccc(Cl)c4[C@@](C)(O)[C@H]3C[C@@H]12 [CHLORTETRACYCLINE HYDROCHLORIDE] | – | -14.1% | – | – | -0.03 | -2% | –
22 | C[C@]12CC[C@H](O)CC1=CC[C@@H]1[C@@H]2CC[C@]2(C)C(=O)CC[C@@H]12 [DEHYDROEPIANDROSTERONE] | – | 7.05% | – | – | -0.03 | -1.9% | –
23 | COc1cc2c(cc1OC)C(=O)OC2 [METAMECONINE] | 0.33 | 24.5% | 20.2% | – | – | – | –
24 | C[n+]1cccc(C(=O)[O-])c1 [TRIGONELLINE] | 0.03 | -29.9% | 2.2% | – | – | – | –

Row | Structure (SMILES) | Hs18S ΔCT (HCT-8 host cells (Hs18S); human, 41 h, 10 μM) | inhibition at 10 µM (Cryptosporidium parvum) | cytotoxicity at 41 h, 10 µM (in vitro) | inhibition at 3.3 µM (Cryptosporidium parvum) | Hs18S ΔCT (HCT-8 host cells (Hs18S); [1]) | cytotoxicity at 10 µM (in vitro) | Hs18S ΔCT (HCT-8 host cells (Hs18S))
25 | C=CCCCCCCCCCCCC(O)CC(O)COC(C)=O (stereo not shown) [AVOCATIN A] | 0.00 | 46% | -0.1% | – | – | – | –
26 | O=C(O)CCCC[C@@H]1SC[C@@H]2NC(=O)N[C@@H]21 [BIOTIN] | – | 11.9% | – | – | -0.24 | -18.4% | –
27 | COc1ccc2c(=O)c(CC(=O)O)coc2c1 [ANHYDROBRAZILIC ACID] | -0.01 | 11.9% | -0.5% | – | – | – | –
28 | C[C@@H]1[C@H](O)[C@@H](C)/C=C/C=C/C=C/C=C/C=C/C=C/C=C/[C@H](O[C@@H]2O[C@H](C)[C@@H](O)[C@H](N)[C@@H]2O)C[C@@H]2O[C@](O)(C[C@@H](O)C[C@@H](O)[C@H](O)CC[C@@H](O)C[C@@H](O)CC(=O)O[C@H]1C)C[C@H](O)[C@H]2C(=O)O [AMPHOTERICIN B] | 0.11 | -4.47% | 7.1% | – | – | – | –
29 | COc1cc(O)c2c(=O)c(O)c(-c3ccccc3)oc2c1 [IZALPININ] | 0.18 | 18.4% | 11.5% | – | – | – | –
30 | CC(=O)[C@H]1CC[C@H]2[C@@H]3CC[C@H]4C[C@H](O)CC[C@]4(C)[C@H]3CC[C@]12C [ALLOPREGNANOLONE] | – | -52.5% | – | – | 0.02 | 1.3% | –
31 | COc1ccccc1O [GUAIACOL] | 0.02 | -32.9% | 1.6% | – | – | – | –
32 | CC(C)=CCC/C(C)=C/CC/C(C)=C/CO [FARNESOL] | 0.02 | 8.75% | 1% | – | – | – | –
33 | N[C@@H](C(=O)O)[C@@H](O)[C@H](O)[C@H](O)CO [GLUCOSAMINIC ACID] | 0.22 | -5.48% | 13.9% | – | – | – | –
34 | CC12CCC(CC1)C(C)(C)O2 [EUCALYPTOL] | -0.22 | 16.2% | -16.4% | – | – | – | –
35 | O=C1C=C2C=C[C@@H]3C[C@@]2(O1)[C@H]1CCCCN31 [SECURININE] | – | 9.24% | – | – | 0.05 | 3.6% | –
36 | C=C[C@H]1C[N@@]2CC[C@H]1C[C@H]2[C@H](O)c1ccnc2ccc(OC)cc12 [QUININE SULFATE] | -0.12 | -15.4% | -8.7% | – | – | – | –
37 | C[C@]12CC[C@@H](O)C[C@H]1CCc1ccccc12 [3alpha-HYDROXY-4,4-BISNOR-8,11,13-PODOCARPATRIENE] | -0.06 | -50.2% | -4.1% | – | – | – | –
38 | CCN1C[C@]2(COC)[C@H](O)C[C@H](OC)[C@@]34[C@@H]5C[C@@]6(O)[C@H](OC(=O)c7ccccc7)[C@@H]5[C@@](OC(C)=O)([C@@H]([C@H](OC)[C@H]23)[C@@H]14)[C@@H](O)[C@@H]6OC [ACONITINE] | – | 2.84% | – | – | -0.16 | -11.7% | –
39 | CC(C)[C@@H]1CC[C@@H](C)CC1=O [MENTHONE] | -0.20 | 28.9% | -14.5% | – | – | – | –
40 | O=C(O)CCCCCCCC(=O)O [AZELAIC ACID] | 0.03 | 6.72% | 1.8% | – | – | – | –
41 | CN(C)[C@@H]1C(O)=C(C(N)=O)C(=O)[C@@]2(O)C(O)=C3C(=O)c4c(O)cccc4[C@@](C)(O)[C@H]3C[C@@H]12 [TETRACYCLINE HYDROCHLORIDE] | – | -17.3% | – | – | – | -24.3% | -0.31
42 | c1cncc(C2=NCCC2)c1 [MYOSMINE] | – | -17.6% | – | – | 0.07 | 4.5% | –
43 | C=C(C)[C@@H]1[C@H]2OC(=O)[C@@H]1[C@]1(O)C[C@H]3O[C@]34C(=O)O[C@H]2[C@]14C [PICROTOXININ] | – | 23.1% | – | – | -0.81 | -75.3% | –
44 | CCOC(=O)c1c(C)cc(O)cc1O [ORSELLINIC ACID, ETHYL ESTER] | -0.12 | 23.7% | -8.3% | – | – | – | –
45 | O=c1c(O)c(-c2ccc(O)cc2)oc2cc(O)cc(O)c12 [KAEMPFEROL] | 0.54 | 19.8% | 31.2% | – | – | – | –
46 | O=C1C=C2CC3(O)COc4c(ccc(O)c4O)C3=C2C=C1O (stereo not shown) [HEMATEIN] | 0.13 | 10.1% | 8.6% | – | – | – | –
47 | C=C(C)[C@@H]1CC[C@]2(C)CC[C@]3(C)[C@H](CC[C@@H]4[C@@]5(C)CC[C@H](O)C(C)(C)[C@@H]5CC[C@]43C)[C@@H]12 [LUPEOL] | – | 41.8% | 3.4% | – | 0.05 | – | –
48 | COC(=O)[C@]1(C)CC[C@]2(C)CC[C@]3(C)C4=CC=C5C(=CC(=O)C(O)=C5C)[C@]4(C)CC[C@@]3(C)[C@@H]2C1 [PRISTIMERIN] | – | 94.7% | – | 30% | 0.55 | 31.6% | –
